Data set [1] is described as follows: head-to-tail lactamisation of unprotected peptide acyl azide (from C-terminal hydrazide, 20 equiv NaNO2, pH 3, -15 C, then NaHCO3 to pH ~7), biphasic EtOAc/buffer. As to conditions: aq phosphate buffer (6 M GdmCl, 50 mM NaH2PO4, 1.5 mM EDTA) / EtOAc biphasic, 3.0 mM, 2 steps.
The nature of data set [2]: as series A (acyl azide from hydrazide, biphasic EtOAc/buffer), isolated after prep HPLC. As to conditions: aq phosphate buffer (6 M GdmCl) / EtOAc biphasic, 3.0 mM, 0.25 h, 2 steps.
Data set [3] in a line: lactamisation (head-to-tail or side-chain-to-tail) of unprotected peptide acyl azide (from hydrazide, 20 equiv NaNO2, pH 3, -15 C, then NaHCO3 to pH ~7), MeCN cosolvent. As to conditions: 21-membered ring, aq phosphate buffer (6 M GdmCl) diluted with 2 vol 50% MeCN/water, 2.2 mM, 2 steps.

As for `C=CC(C)(C)n1cc(C[C@@H]2NC(=O)[C@H](C/C=C/C)NC(=O)[C@H](CC(C)C)NC(=O)[C@H](CC(C)C)N(C)C(=O)[C@H](C)NC(=O)[C@H](Cc3ccc(O)c([N+](=O)[O-])c3)NC(=O)[C@H](CC(C)C)N(C)C2=O)c2ccccc21`, the ring closure, conversion by HPLC in data set [1] (from C=CC(C)(C)n1cc(C[C@H](N)C(=O)N(C)[C@@H](CC(C)C)C(=O)N[C@@H](Cc2ccc(O)c([N+](=O)[O-])c2)C(=O)N[C@@H](C)C(=O)N(C)[C@@H](CC(C)C)C(=O)N[C@@H](CC(C)C)C(=O)N[C@@H](C/C=C/C)C(=O)N=[N+]=[N-])c2ccccc21, 21-membered ring, 0.25 h) worked out at 84%. Moreover, in data set [2] (from C=CC(C)(C)n1cc(C[C@H](N)C(=O)N(C)[C@@H](CC(C)C)C(=O)N[C@@H](Cc2ccc(O)c([N+](=O)[O-])c2)C(=O)N[C@@H](C)C(=O)N(C)[C@@H](CC(C)C)C(=O)N[C@@H](CC(C)C)C(=O)N[C@@H](C/C=C/C)C(=O)N=[N+]=[N-])c2ccccc21, 21-membered ring), the ring closure, yield over several steps was determined as 39%.

For the molecule `C=CC(C)(C)n1cc(C[C@@H]2NC(=O)[C@H](Cc3ccccc3)NC(=O)[C@H](CC(C)C)NC(=O)[C@H](CC(C)C)N(C)C(=O)[C@H](C)NC(=O)[C@H](Cc3ccc(O)c([N+](=O)[O-])c3)NC(=O)[C@H](CC(C)C)N(C)C2=O)c2ccccc21`, the ring closure, conversion by HPLC in data set [1] (from C=CC(C)(C)n1cc(C[C@H](N)C(=O)N(C)[C@@H](CC(C)C)C(=O)N[C@@H](Cc2ccc(O)c([N+](=O)[O-])c2)C(=O)N[C@@H](C)C(=O)N(C)[C@@H](CC(C)C)C(=O)N[C@@H](CC(C)C)C(=O)N[C@@H](Cc2ccccc2)C(=O)N=[N+]=[N-])c2ccccc21, 21-membered ring, 0.25 h) amounted to 63%. In addition, the ring closure, yield over several steps in data set [2] (from C=CC(C)(C)n1cc(C[C@H](N)C(=O)N(C)[C@@H](CC(C)C)C(=O)N[C@@H](Cc2ccc(O)c([N+](=O)[O-])c2)C(=O)N[C@@H](C)C(=O)N(C)[C@@H](CC(C)C)C(=O)N[C@@H](CC(C)C)C(=O)N[C@@H](Cc2ccccc2)C(=O)N=[N+]=[N-])c2ccccc21, 21-membered ring) worked out at 22%.

`C=CC[C@@H]1NC(=O)[C@H](CC(C)C)NC(=O)[C@H](CC(C)C)N(C)C(=O)[C@H](C)NC(=O)[C@H](Cc2ccc(O)c([N+](=O)[O-])c2)NC(=O)[C@H](CC(C)C)N(C)C(=O)[C@@H](Cc2cn(C)c3ccccc23)NC1=O`: the ring closure, conversion by HPLC in data set [1] (from C=CC[C@H](NC(=O)[C@H](CC(C)C)NC(=O)[C@H](CC(C)C)N(C)C(=O)[C@H](C)NC(=O)[C@H](Cc1ccc(O)c([N+](=O)[O-])c1)NC(=O)[C@H](CC(C)C)N(C)C(=O)[C@H](N)Cc1cn(C)c2ccccc12)C(=O)N=[N+]=[N-], 21-membered ring) stood at 95%.

Turning to `C=CC[C@@H]1NC(=O)[C@H](CC(C)C)NC(=O)[C@H](CC(C)C)N(C)C(=O)[C@H](C)NC(=O)[C@H](Cc2ccc(O)c([N+](=O)[O-])c2)NC(=O)[C@H](CC(C)C)N(C)C(=O)[C@H](Cc2cn(C(C)(C)C=C)c3ccccc23)NC1=O`, the ring closure, conversion by HPLC in data set [3] (from C=CC[C@H](NC(=O)[C@H](CC(C)C)NC(=O)[C@H](CC(C)C)N(C)C(=O)[C@H](C)NC(=O)[C@H](Cc1ccc(O)c([N+](=O)[O-])c1)NC(=O)[C@H](CC(C)C)N(C)C(=O)[C@@H](N)Cc1cn(C(C)(C)C=C)c2ccccc12)C(=O)N=[N+]=[N-], 0.27 h) worked out at 90%. The ring closure, yield over several steps in data set [2] (from C=CC[C@H](NC(=O)[C@H](CC(C)C)NC(=O)[C@H](CC(C)C)N(C)C(=O)[C@H](C)NC(=O)[C@H](Cc1ccc(O)c([N+](=O)[O-])c1)NC(=O)[C@H](CC(C)C)N(C)C(=O)[C@@H](N)Cc1cn(C(C)(C)C=C)c2ccccc12)C(=O)N=[N+]=[N-], 21-membered ring) stood at 56%.

As for `CC[C@@H]1NC(=O)[C@H](CC(C)C)N(C)C(=O)[C@H](C(C)C)N(C)C(=O)[C@H](CC(C)C)N(C)C(=O)[C@H](CC(C)C)N(C)C(=O)[C@@H](C)NC(=O)[C@H](C)NC(=O)[C@H](CC(C)C)N(C)C(=O)[C@H](C(C)C)NC(=O)[C@H](CC(C)C)N(C)C(=O)CN(C)C1=O`, the ring closure, conversion by HPLC in data set [1] (from CC[C@H](NC(=O)[C@H](CC(C)C)N(C)C(=O)[C@H](C(C)C)N(C)C(=O)[C@H](CC(C)C)N(C)C(=O)[C@H](CC(C)C)N(C)C(=O)[C@@H](C)N)C(=O)N(C)CC(=O)N(C)[C@@H](CC(C)C)C(=O)N[C@H](C(=O)N(C)[C@@H](CC(C)C)C(=O)N[C@@H](C)C(=O)N=[N+]=[N-])C(C)C, 33-membered ring, 0.25 h) stood at 61%. The ring closure, yield over several steps in data set [2] (from CC[C@H](NC(=O)[C@H](CC(C)C)N(C)C(=O)[C@H](C(C)C)N(C)C(=O)[C@H](CC(C)C)N(C)C(=O)[C@H](CC(C)C)N(C)C(=O)[C@@H](C)N)C(=O)N(C)CC(=O)N(C)[C@@H](CC(C)C)C(=O)N[C@H](C(=O)N(C)[C@@H](CC(C)C)C(=O)N[C@@H](C)C(=O)N=[N+]=[N-])C(C)C, 33-membered ring) worked out at 22%.

On to `CC(C)C[C@@H]1NC(=O)[C@H](CC(C)C)N(C)C(=O)[C@H](C)NC(=O)[C@H](Cc2ccc(O)c([N+](=O)[O-])c2)NC(=O)[C@H](CC(C)C)N(C)C(=O)[C@H](C)NC(=O)[C@H](Cc2ccccc2)NC1=O` [H-Ala-N-Me-Leu-Tyr(3-NO2)-Ala-N-Me-Leu-Leu-Phe-N3], for which, in data set [1] (from CC(C)C[C@H](NC(=O)[C@H](CC(C)C)N(C)C(=O)[C@H](C)NC(=O)[C@H](Cc1ccc(O)c([N+](=O)[O-])c1)NC(=O)[C@H](CC(C)C)N(C)C(=O)[C@H](C)N)C(=O)N[C@@H](Cc1ccccc1)C(=O)N=[N+]=[N-], 21-membered ring, 0.25 h), the ring closure, conversion by HPLC came to 88%. Further, the ring closure, yield over several steps in data set [2] (from CC(C)C[C@H](NC(=O)[C@H](CC(C)C)N(C)C(=O)[C@H](C)NC(=O)[C@H](Cc1ccc(O)c([N+](=O)[O-])c1)NC(=O)[C@H](CC(C)C)N(C)C(=O)[C@H](C)N)C(=O)N[C@@H](Cc1ccccc1)C(=O)N=[N+]=[N-], 21-membered ring) came out at 40%.

For the molecule `C=CC[C@@H]1NC(=O)[C@H](CC(C)C)N(C)C(=O)[C@H](C(C)C)NC(=O)[C@H](Cc2ccccc2)NC(=O)[C@H](C)NC(=O)[C@H](CC(C)C)N(C)C(=O)[C@H](Cc2cn(C)c3ccccc23)NC1=O` [H-Trp(1-Me)-N-Me-Leu-Ala-Phe-Val-N-Me-Leu-allylGly-N3], in data set [1] (from C=CC[C@H](NC(=O)[C@H](CC(C)C)N(C)C(=O)[C@@H](NC(=O)[C@H](Cc1ccccc1)NC(=O)[C@H](C)NC(=O)[C@H](CC(C)C)N(C)C(=O)[C@@H](N)Cc1cn(C)c2ccccc12)C(C)C)C(=O)N=[N+]=[N-], 21-membered ring, 0.25 h), the ring closure, conversion by HPLC worked out at 75%. Besides, the ring closure, yield over several steps in data set [2] (from C=CC[C@H](NC(=O)[C@H](CC(C)C)N(C)C(=O)[C@@H](NC(=O)[C@H](Cc1ccccc1)NC(=O)[C@H](C)NC(=O)[C@H](CC(C)C)N(C)C(=O)[C@@H](N)Cc1cn(C)c2ccccc12)C(C)C)C(=O)N=[N+]=[N-], 21-membered ring) stood at 50%.

`C=CC[C@@H]1NC(=O)[C@H](CC(C)C)NC(=O)[C@H](CC(C)C)N(C)C(=O)[C@H](C)NC(=O)[C@H](Cc2ccc(O)c([N+](=O)[O-])c2)NC(=O)[C@H](CC(C)C)N(C)C(=O)[C@H](Cc2cn(C)c3ccccc23)NC1=O` [H-Trp(1-Me)-N-Me-Leu-Tyr(3-NO2)-Ala-N-Me-Leu-Leu-allylGly-N3]: in data set [1] (from C=CC[C@H](NC(=O)[C@H](CC(C)C)NC(=O)[C@H](CC(C)C)N(C)C(=O)[C@H](C)NC(=O)[C@H](Cc1ccc(O)c([N+](=O)[O-])c1)NC(=O)[C@H](CC(C)C)N(C)C(=O)[C@@H](N)Cc1cn(C)c2ccccc12)C(=O)N=[N+]=[N-], 21-membered ring, 0.25 h), the ring closure, conversion by HPLC worked out at 93%. The molecule further gave a ring closure, yield over several steps in data set [2] (from C=CC[C@H](NC(=O)[C@H](CC(C)C)NC(=O)[C@H](CC(C)C)N(C)C(=O)[C@H](C)NC(=O)[C@H](Cc1ccc(O)c([N+](=O)[O-])c1)NC(=O)[C@H](CC(C)C)N(C)C(=O)[C@@H](N)Cc1cn(C)c2ccccc12)C(=O)N=[N+]=[N-], 21-membered ring) of 58%.

For the molecule `C=CC[C@@H]1NC(=O)[C@H](CC(C)C)NC(=O)[C@H](CC(C)C)N(C)C(=O)[C@H](C)NC(=O)[C@H](Cc2ccc(O)c([N+](=O)[O-])c2)NC(=O)[C@H](CC(C)C)N(C)C(=O)[C@H](Cc2cn(C)c3ccccc23)NC1=O` [H-allylGly-Trp(1-Me)-N-Me-Leu-Tyr(3-NO2)-Ala-N-Me-Leu-Leu-N3], in data set [3] (from C=CC[C@H](N)C(=O)N[C@@H](Cc1cn(C)c2ccccc12)C(=O)N(C)[C@@H](CC(C)C)C(=O)N[C@@H](Cc1ccc(O)c([N+](=O)[O-])c1)C(=O)N[C@@H](C)C(=O)N(C)[C@@H](CC(C)C)C(=O)N[C@@H](CC(C)C)C(=O)N=[N+]=[N-], 0.35 h), the ring closure, conversion by HPLC was 59%.

Values taken from article PMC11191687.
